# Test results: ChEMBL document CHEMBL1134571, “Photochemical synthesis of N-arylbenzophenanthridine selective estrogen receptor modulators (serms)” (J Med Chem, 2001)
# Active and inactive are the calls of the source. The calls are words filed in the database; no cut-off is given here.
# Experiments:
# MCF7 [1] = assay: Inhibition of 17-beta-estradiol induced MCF-7 cell proliferation; assay type: functional, cell-based; settings: Homo sapiens
# MCF7 [2] = assay: Inhibition of 17-beta-estradiol induced MCF-7 cell proliferation;NA=not active; assay type: functional, cell-based; settings: Homo sapiens
# [3] = target: Estrogen receptor (Homo sapiens) (UniProt Q92731+P03372); assay: Relative binding affinity(RBA) as displacement of [3H]17-beta-estradiol from MCF-7 cell lysate;NA=not active; assay type: cell-based
# MCF7 [4] = assay: Inhibition of 17-beta-estradiol induced MCF-7 cell proliferation; NA=not active; assay type: functional, cell-based; settings: Homo sapiens
Compound,IC50 (MCF7 [1]) [nM],also measured
O=c1c2cc(O)ccc2c2c(n1-c1ccc(OCCN3CCCCC3)cc1)-c1ccc(O)cc1CC2,128,
COc1ccc2c(ccc3c4ccc(OC)cc4c(=O)n(-c4ccc(OCCN5CCCCC5)cc4)c23)c1,,NA (MCF7 [2]): inactive; NA [3]: inactive
Oc1ccc2c(c1)CN(c1ccc(OCCN3CCCCC3)cc1)c1c-2ccc2cc(O)ccc12,1,
COc1ccc2c(c1)CN(c1ccc(OCCN3CCCCC3)cc1)c1c-2ccc2cc(OC)ccc12,19,
C[C@]12CC[C@@H]3c4ccc(O)cc4CC[C@H]3[C@@H]1CC[C@@H]2O,,NA (MCF7 [4]): inactive
O=c1c2cc(O)ccc2c2ccc3cc(O)ccc3c2n1-c1ccc(OCCN2CCCCC2)cc1,,NA (MCF7 [2]): inactive
COc1ccc2c(c1)CN(c1ccc(OCCN3CCCCC3)cc1)C1=C2CCc2cc(OC)ccc21,287,
